According to ChEMBL document CHEMBL5390209, “Spinosyn A and Its Derivative Inhibit Colorectal Cancer Cell Growth via the EGFR Pathway” (J Nat Prod, 2023):
Calls of active or inactive are those of the source. The calls are words filed in the database; no cut-off is given here.

Legend:
DLD-1 [1] = assay: Antiproliferative activity against human DLD-1 cells assessed as cell growth inhibition incubated for 48 hrs by MTT assay; type: functional, cell-based; settings: dose >= 10.0 µM
HT-29 [2] = assay: Antiproliferative activity against double EGFR/HER2 knockout human HT-29 cells assessed as reduction in cell viability incubated for 48 hrs by MTT assay; type: functional, cell-based
[3] = Toxicity in human HT-29 cells xenografted Balb/c mouse assessed as change in body weight at 2.5 mg/kg/day, ip administrated for every other day and measured after 6 days; type: organism-based; settings: in vivo, 144 h, time 6 day
HT-29 [4] = assay: Antitumor activity against human HT-29 cells xenografted Balb/c mouse assessed as reduction in tumor growth at 2.5 mg/kg/day, ip administrated for every other day and measured after 28 days; type: functional, organism-based; settings: time 28.0 day
[5] = molecular target: Epidermal growth factor receptor (Homo sapiens) (UniProt P00533); assay: Inhibition of EGFR in human HT-29 cells incubated for 24 hrs by Western blotting analysis; type: cell-based; settings: dose 3.75-15 µM
Chain of Epidermal growth factor receptor (Homo sapiens) (P00533 whole entry): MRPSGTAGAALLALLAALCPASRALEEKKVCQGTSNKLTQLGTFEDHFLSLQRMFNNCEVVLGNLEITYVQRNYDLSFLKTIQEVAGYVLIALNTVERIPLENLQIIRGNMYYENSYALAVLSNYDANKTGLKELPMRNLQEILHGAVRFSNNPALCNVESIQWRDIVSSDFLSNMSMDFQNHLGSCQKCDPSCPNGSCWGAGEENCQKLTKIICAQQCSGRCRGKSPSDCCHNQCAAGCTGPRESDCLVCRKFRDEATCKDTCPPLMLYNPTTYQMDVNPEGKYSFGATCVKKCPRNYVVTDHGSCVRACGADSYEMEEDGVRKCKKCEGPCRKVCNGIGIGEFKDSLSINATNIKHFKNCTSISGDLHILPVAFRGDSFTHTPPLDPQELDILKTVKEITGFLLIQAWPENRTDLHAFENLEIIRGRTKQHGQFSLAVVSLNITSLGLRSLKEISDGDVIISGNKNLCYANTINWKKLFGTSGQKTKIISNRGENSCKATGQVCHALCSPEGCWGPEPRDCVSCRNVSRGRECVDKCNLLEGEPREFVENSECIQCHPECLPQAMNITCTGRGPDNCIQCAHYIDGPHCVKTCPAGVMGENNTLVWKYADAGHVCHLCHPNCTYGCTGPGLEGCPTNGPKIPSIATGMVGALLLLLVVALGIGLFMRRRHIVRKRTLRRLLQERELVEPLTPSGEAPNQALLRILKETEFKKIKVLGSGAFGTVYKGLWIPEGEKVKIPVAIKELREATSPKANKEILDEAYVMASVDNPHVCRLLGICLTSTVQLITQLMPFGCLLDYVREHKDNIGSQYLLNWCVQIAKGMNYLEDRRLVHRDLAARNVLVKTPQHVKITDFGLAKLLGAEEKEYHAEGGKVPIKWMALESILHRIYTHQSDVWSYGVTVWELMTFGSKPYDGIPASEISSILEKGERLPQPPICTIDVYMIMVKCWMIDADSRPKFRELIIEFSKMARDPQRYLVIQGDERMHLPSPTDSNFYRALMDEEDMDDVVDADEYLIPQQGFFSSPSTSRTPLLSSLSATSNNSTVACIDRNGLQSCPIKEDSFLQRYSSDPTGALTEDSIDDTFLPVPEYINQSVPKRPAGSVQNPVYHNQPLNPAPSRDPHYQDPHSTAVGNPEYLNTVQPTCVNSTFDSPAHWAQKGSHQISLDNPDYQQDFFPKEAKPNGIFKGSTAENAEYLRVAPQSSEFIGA

HT-29 [6] = assay: Antiproliferative activity against HER2 knockout human HT-29 cells assessed as reduction in cell viability incubated for 48 hrs by MTT assay; type: functional, cell-based
[7] = molecular target: Epidermal growth factor receptor (Homo sapiens) (UniProt P00533); assay: Inhibition of EGFR phosphorylation in human HT-29 cells incubated for 24 hrs by Western blotting analysis; type: cell-based
HT-29 [8] = assay: Antiproliferative activity against EGFR knockout human HT-29 cells assessed as reduction in cell viability incubated for 48 hrs by MTT assay; type: functional, cell-based
[9] = molecular target: Epidermal growth factor receptor (Homo sapiens) (UniProt P00533); assay: Inhibition of EGFR phosphorylation in human SW480 cells incubated for 24 hrs by Western blotting analysis; type: cell-based
[10] = molecular target: Epidermal growth factor receptor (Homo sapiens) (UniProt P00533); assay: Inhibition of EGFR in human HT-29 cells assessed as reduction in STAT3 phosphorylation level at 2 uM by Western blotting analysis; type: cell-based; settings: time 3-15 hrs, TDE = time-dependent effect
SW-620 = assay: Antiproliferative activity against human SW620 cells assessed as cell growth inhibition incubated for 48 hrs by MTT assay; type: functional, cell-based; settings: dose >= 10.0 µM
HT-29 [11] = assay: Antiproliferative activity against human HT-29 cells assessed as cell growth inhibition incubated for 48 hrs by MTT assay; type: functional, cell-based; settings: for IC50: HT-29, 48 h
HCT-116 = assay: Antiproliferative activity against human HCT-116 cells assessed as cell growth inhibition incubated for 48 hrs by MTT assay; type: functional, cell-based; settings: dose >= 10.0 µM
[12] = molecular target: Receptor tyrosine-protein kinase erbB-2 (Homo sapiens) (UniProt P04626); assay: Inhibition of HER2 phosphorylation in human HT-29 cells incubated for 24 hrs by Western blotting analysis; type: cell-based
Chain of Receptor tyrosine-protein kinase erbB-2 (Homo sapiens) (P04626 whole entry): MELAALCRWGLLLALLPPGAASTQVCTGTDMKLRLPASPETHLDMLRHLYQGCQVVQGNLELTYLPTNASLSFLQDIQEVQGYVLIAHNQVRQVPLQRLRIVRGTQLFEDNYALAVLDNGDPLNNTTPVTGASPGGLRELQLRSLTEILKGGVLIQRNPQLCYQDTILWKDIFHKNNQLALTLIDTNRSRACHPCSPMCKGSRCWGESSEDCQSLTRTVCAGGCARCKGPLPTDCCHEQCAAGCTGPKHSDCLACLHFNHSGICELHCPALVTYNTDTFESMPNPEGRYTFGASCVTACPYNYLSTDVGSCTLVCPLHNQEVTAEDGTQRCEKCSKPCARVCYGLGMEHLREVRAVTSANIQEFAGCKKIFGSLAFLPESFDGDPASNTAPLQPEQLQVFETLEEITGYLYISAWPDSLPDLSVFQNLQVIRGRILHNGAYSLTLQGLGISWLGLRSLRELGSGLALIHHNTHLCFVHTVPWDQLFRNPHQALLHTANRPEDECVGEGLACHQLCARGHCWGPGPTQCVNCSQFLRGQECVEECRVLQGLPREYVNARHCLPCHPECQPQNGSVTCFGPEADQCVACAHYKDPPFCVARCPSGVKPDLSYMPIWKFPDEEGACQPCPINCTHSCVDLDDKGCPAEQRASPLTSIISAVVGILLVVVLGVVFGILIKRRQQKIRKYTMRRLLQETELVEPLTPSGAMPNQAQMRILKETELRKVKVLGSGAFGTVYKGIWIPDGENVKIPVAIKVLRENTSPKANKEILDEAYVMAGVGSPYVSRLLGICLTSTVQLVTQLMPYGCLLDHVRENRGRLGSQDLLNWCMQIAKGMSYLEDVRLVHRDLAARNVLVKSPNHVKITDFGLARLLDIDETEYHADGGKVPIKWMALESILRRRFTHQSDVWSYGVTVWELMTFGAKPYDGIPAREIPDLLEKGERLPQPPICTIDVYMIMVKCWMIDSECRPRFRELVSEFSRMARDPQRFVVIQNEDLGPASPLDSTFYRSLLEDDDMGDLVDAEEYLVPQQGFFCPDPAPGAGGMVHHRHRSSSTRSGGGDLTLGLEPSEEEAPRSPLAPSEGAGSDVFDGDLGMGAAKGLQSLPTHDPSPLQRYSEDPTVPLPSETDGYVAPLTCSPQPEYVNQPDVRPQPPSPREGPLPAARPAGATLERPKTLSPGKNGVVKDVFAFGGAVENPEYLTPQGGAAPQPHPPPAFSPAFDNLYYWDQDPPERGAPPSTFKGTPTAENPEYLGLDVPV

[13] = molecular target: Epidermal growth factor receptor (Homo sapiens) (UniProt P00533); assay: Inhibition of EGFR in human HT-29 cells assessed as reduction in Erk1/2 phosphorylation level at 2 uM by Western blotting analysis; type: cell-based; settings: time 3-15 hrs, TDE = time-dependent effect
[14] = molecular target: Receptor tyrosine-protein kinase erbB-2 (Homo sapiens) (UniProt P04626); assay: Inhibition of HER2 phosphorylation in human SW480 cells incubated for 24 hrs by Western blotting analysis; type: cell-based
[15] = molecular target: Receptor tyrosine-protein kinase erbB-2 (Homo sapiens) (UniProt P04626); assay: Inhibition of HER2 in human HT-29 cells incubated for 24 hrs by Western blotting analysis; type: cell-based
[16] = Toxicity in human HT-29 cells xenografted Balb/c mouse assessed as change in lung pathology at 2.5 mg/kg/day, ip administrated for every other day and measured after 28 days; type: organism-based; settings: in vivo, 672 h, time 28 day
LoVo = assay: Antiproliferative activity against human LoVo cells assessed as cell growth inhibition incubated for 48 hrs by MTT assay; type: functional, cell-based; settings: dose >= 10.0 µM
HT-29 [17] = assay: Inhibition of EGFR in human HT-29 cells xenografted in BALB/c nude mouse assessed as EGFR protein level in tumor at 2.5 mg/kg/day, ip administrated for every other day and measured after 28 days by Western blotting analysis; type: functional, organism-based; settings: time 28.0 day
SW480 [18] = assay: Antiproliferative activity against double EGFR/HER2 knockout human SW480 cells assessed as reduction in cell viability incubated for 48 hrs by MTT assay; type: functional, cell-based
SW480 [19] = assay: Antiproliferative activity against EGFR knockout human SW480 cells assessed as reduction in cell viability incubated for 48 hrs by MTT assay; type: functional, cell-based
SW480 [20] = assay: Antiproliferative activity against human SW480 cells assessed as cell growth inhibition incubated for 48 hrs by MTT assay; type: functional, cell-based; settings: dose >= 10.0 µM
[21] = molecular target: Epidermal growth factor receptor (Homo sapiens) (UniProt P00533); assay: Inhibition of EGFR in human SW480 cells incubated for 24 hrs by Western blotting analysis; type: cell-based
RKO = assay: Antiproliferative activity against human RKO cells assessed as cell growth inhibition incubated for 48 hrs by MTT assay; type: functional, cell-based
[22] = molecular target: Epidermal growth factor receptor (Homo sapiens) (UniProt P00533); assay: Inhibition of EGFR in human HT-29 cells assessed as reduction in MEK1/2 phosphorylation level at 0.5 to 2 uM incubated for 24 hrs by Western blotting analysis; type: cell-based; settings: dose 0.5-2 µM
DLD-1 [23] = assay: Inhibition of colony formation in human DLD-1 cells at 0.75 uM incubated for 14 days by crystal violet staining based colony formation assay; type: functional, cell-based; settings: time 14.0 day
[24] = molecular target: Receptor tyrosine-protein kinase erbB-2 (Homo sapiens) (UniProt P04626); assay: Inhibition of HER2 in human SW480 cells incubated for 24 hrs by Western blotting analysis; type: cell-based
[25] = Toxicity in human HT-29 cells xenografted Balb/c mouse assessed as change in body weight at 5 mg/kg/day, ip administrated for every other day and measured after 6 days; type: organism-based; settings: in vivo, 144 h, time 6 day
HT-29 [26] = assay: Antitumor activity against human HT-29 cells xenografted Balb/c mouse assessed as reduction in tumor growth at 5 mg/kg/day, ip administrated for every other day and measured after 28 days; type: functional, organism-based; settings: time 28.0 day
HT-29 [27] = assay: Antitumor activity against human HT-29 cells xenografted Balb/c mouse assessed as reduction in Ki67 expression level at 5 mg/kg/day, ip administrated for every other day and measured after 28 days by immunohistochemistry staining method; type: functional, organism-based; settings: time 28.0 day
[28] = molecular target: Epidermal growth factor receptor (Homo sapiens) (UniProt P00533); assay: Inhibition of EGFR in human HT-29 cells assessed as reduction in STAT3 phosphorylation level at 3.75 to 15 uM incubated for 24 hrs by Western blot analysis; type: cell-based; settings: dose 3.75-15 µM
[29] = molecular target: Epidermal growth factor receptor (Homo sapiens) (UniProt P00533); assay: Inhibition of EGFR in human SW480 cells assessed as reduction in Erk1/2 phosphorylation level at 3.75 to 15 uM incubated for 24 hrs by Western blot analysis; type: cell-based; settings: dose 3.75-15 µM
HT-29 [30] = assay: Inhibition of EGFR in human HT-29 cells xenografted in BALB/c nude mouse assessed as EGFR protein level in tumor at 5 mg/kg/day, ip administrated for every other day and measured after 28 days by Western blotting analysis; type: functional, organism-based; settings: time 28.0 day
[31] = molecular target: Receptor tyrosine-protein kinase erbB-2 (Homo sapiens) (UniProt P04626); assay: Inhibition of HER2 in human HT-29 cells at 15 uM by Western blot analysis; type: cell-based; settings: time 3-15 hrs, TDE = time-dependent effect
HT-29 [32] = assay: Inhibition of HER2 in human HT-29 cells xenografted in BALB/c nude mouse assessed as reduction in HER2 protein expression level at 5 mg/kg/day, ip administrated for every other day and measured after 28 days by immunohistochemistry staining based analysis; type: functional, organism-based; settings: time 28.0 day
[33] = Toxicity in human HT-29 cells xenografted Balb/c mouse assessed as change in heart pathology at 5 mg/kg/day, ip administrated for every other day and measured after 28 days; type: organism-based; settings: in vivo, 672 h, time 28 day
HT-29 [34] = assay: Inhibition of EGFR in human HT-29 cells xenografted in BALB/c nude mouse assessed as reduction in EGFR protein expression level in tumor at 5 mg/kg/day, ip administrated for every other day and measured after 28 days by immunohistochemistry staining based analysis; type: functional, organism-based; settings: time 28.0 day
[35] = Toxicity in human HT-29 cells xenografted Balb/c mouse assessed as change in liver pathology at 5 mg/kg/day, ip administrated for every other day and measured after 28 days; type: organism-based; settings: in vivo, 672 h, time 28 day

SMILES	Activity (DLD-1 [1])	Activity (HT-29 [2])	inhibition [5]	Activity (HT-29 [6])	inhibition [7]	Activity (HT-29 [8])	inhibition [9]	Activity (SW-620)	Activity (HT-29 [11])	IC50 (HT-29 [11]) [µM]	Activity (HCT-116)	inhibition [12]	inhibition [14]	inhibition [15]	Activity (LoVo)	Activity (SW480 [18])	Activity (SW480 [19])	Activity (SW480 [20])	inhibition [21]	IC50 (RKO) [µM]	further results
CC[C@H]1CCC[C@H](O[C@H]2CC[C@H](N(C)CC(O)CN3CCNCC3)[C@@H](C)O2)[C@@H](C)C(=O)C2=C[C@@H]3[C@@H](C=C[C@@H]4C[C@@H](O[C@@H]5O[C@@H](C)[C@H](OC)[C@@H](OC)[C@H]5OC)C[C@@H]34)[C@@H]2CC(=O)O1 (stereo partly drawn)	Dose-Dependent Effect	inactive	Dose-Dependent Effect	inactive	Dose-Dependent Effect	inactive	Dose-Dependent Effect	Dose-Dependent Effect	Dose-Dependent Effect	0.75	Dose-Dependent Effect	Dose-Dependent Effect	Dose-Dependent Effect	Dose-Dependent Effect	Dose-Dependent Effect	inactive	inactive	Dose-Dependent Effect	Dose-Dependent Effect	3.3	Activity [3]: Non-Toxic; Activity (HT-29 [4]): Active; inhibition [10]: Tde; inhibition [13]: Tde; Activity [16]: Non-Toxic; inhibition (HT-29 [17]): Active; inhibition (RKO; dose >= 10.0 µM): Dose-Dependent Effect; inhibition [22]: Active; inhibition (DLD-1 [23]): Active; inhibition [24]: Dose-Dependent Effect
CC[C@H]1CCC[C@H](O[C@H]2CC[C@H](N(C)C)[C@@H](C)O2)[C@@H](C)C(=O)C2=C[C@@H]3[C@@H](C=C[C@@H]4C[C@@H](O[C@@H]5O[C@@H](C)[C@H](OC)[C@@H](OC)[C@H]5OC)C[C@@H]34)[C@@H]2CC(=O)O1 [SPINOSYN A]	Dose-Dependent Effect	inactive	Dose-Dependent Effect	inactive	Dose-Dependent Effect	inactive	Dose-Dependent Effect	Dose-Dependent Effect	Dose-Dependent Effect	7.3	Dose-Dependent Effect	Dose-Dependent Effect	Dose-Dependent Effect	Dose-Dependent Effect	Dose-Dependent Effect	inactive	inactive	Dose-Dependent Effect	Dose-Dependent Effect	17	Activity [25]: Non-Toxic; Activity (HT-29 [26]): Active; Activity (HT-29 [27]): Active; inhibition [28]: Active; inhibition [29]: Active; inhibition (HT-29 [30]): Active; inhibition [31]: Tde; inhibition (HT-29 [32]): Active; Activity [33]: Non-Toxic; inhibition (HT-29 [34]): Active; Activity [35]: Non-Toxic; Activity (RKO; dose >= 10.0 µM): Dose-Dependent Effect; inhibition [24]: Dose-Dependent Effect
